Laboratory results from publication PMC5218480 (PLoS ONE, 2017).

System: MV-4-11 cells
Experiment: Gene expression microarray analysis (Affymetrix PrimeView) and GSEA
Assay type: cell-based, human
Set-up: RFU PODN (11730768_x_at) / Fold change /veh PODN (11730768_x_at) / RFU LINC00158 (11744669_a_at) / Fold change /veh LINC00158 (11744669_a_at) / RFU DUSP10 (11751237_a_at) / Fold change /veh DUSP10 (11751237_a_at) / RFU ID3 (11757404_x_at) / Fold change /veh ID3 (11757404_x_at) / RFU PLEKHG5 (11737974_s_at) / Fold change /veh PLEKHG5 (11737974_s_at) / RFU LRRC4B (11730491_at) / Fold change /veh LRRC4B (11730491_at) / RFU GIMAP4 (11747438_a_at) / Fold change /veh GIMAP4 (11747438_a_at) / RFU KRT8 (11758183_x_at) / Fold change /veh KRT8 (11758183_x_at) / RFU CNN1 (11734310_a_at) / Fold change /veh CNN1 (11734310_a_at) / RFU VPS37D (11726825_at) / Fold change /veh VPS37D (11726825_at) / RFU C10orf10 (11716522_x_at) / Fold change /veh C10orf10 (11716522_x_at) / RFU KIR2DL2 /// KIR2DL4 /// KIR2DL5A /// KIR2DL5B /// KIR2DS1 /// KIR2DS2 /// KIR2DS3 /// KIR2DS4 /// KIR3DL3 /// KIR3DL3 /// KIR3DS1 (11738374_at) / Fold change /veh KIR2DL2 /// KIR2DL4 /// KIR2DL5A /// KIR2DL5B /// KIR2DS1 /// KIR2DS2 /// KIR2DS3 /// KIR2DS4 /// KIR3DL3 /// KIR3DL3 /// KIR3DS1 (11738374_at) / RFU C1QL1 (11718748_at) / Fold change /veh C1QL1 (11718748_at) / RFU TMPRSS4 (11747572_a_at) / Fold change /veh TMPRSS4 (11747572_a_at) / RFU HAMP (11756126_x_at) / Fold change /veh HAMP (11756126_x_at) / RFU RNFT2 (11725882_a_at) / Fold change /veh RNFT2 (11725882_a_at) / RFU NR4A2 (11747474_a_at) / Fold change /veh NR4A2 (11747474_a_at) / RFU ABCC12 (11746883_a_at) / Fold change /veh ABCC12 (11746883_a_at) / RFU TMEM136 (11760407_x_at) / Fold change /veh TMEM136 (11760407_x_at) / RFU CLDN22 /// WWC2 (11732394_at) / Fold change /veh CLDN22 /// WWC2 (11732394_at) / RFU HLA-DPB1 (11760878_x_at) / Fold change /veh HLA-DPB1 (11760878_x_at) / RFU SPINT1 (11716480_a_at) / Fold change /veh SPINT1 (11716480_a_at) / RFU GAP43 (11754022_s_at) / Fold change /veh GAP43 (11754022_s_at) / RFU A4GNT (11735810_at) / Fold change /veh A4GNT (11735810_at) / RFU PRB3 (11715151_x_at) / Fold change /veh PRB3 (11715151_x_at) / RFU TUBB4B (11761932_at) / Fold change /veh TUBB4B (11761932_at) / RFU CAPN14 (11732068_a_at) / Fold change /veh CAPN14 (11732068_a_at) / RFU TMCC2 (11721928_a_at) / Fold change /veh TMCC2 (11721928_a_at) / RFU IRGQ (11745062_a_at) / Fold change /veh IRGQ (11745062_a_at) / RFU FAM174B (11720279_a_at) / Fold change /veh FAM174B (11720279_a_at) / RFU TMPRSS4 (11748680_a_at) / Fold change /veh TMPRSS4 (11748680_a_at) / RFU FAM212B (11763350_a_at) / Fold change /veh FAM212B (11763350_a_at) / RFU PLEKHG5 (11743358_a_at) / Fold change /veh PLEKHG5 (11743358_a_at) / RFU ZSCAN30 (11745921_a_at) / Fold change /veh ZSCAN30 (11745921_a_at) / RFU CMKLR1 (11741424_a_at) / Fold change /veh CMKLR1 (11741424_a_at) / RFU LOC101060620 /// MAPK8IP1 (11723275_at) / Fold change /veh LOC101060620 /// MAPK8IP1 (11723275_at) / RFU SPTSSB (11747773_x_at) / Fold change /veh SPTSSB (11747773_x_at) / RFU PRSS12 (11739890_at) / Fold change /veh PRSS12 (11739890_at) / RFU BIN1 (11741810_x_at) / Fold change /veh BIN1 (11741810_x_at) / RFU WNT11 (11732464_a_at) / Fold change /veh WNT11 (11732464_a_at) / RFU C10orf10 (11716521_a_at) / Fold change /veh C10orf10 (11716521_a_at) / RFU C5orf56 (11738089_at) / Fold change /veh C5orf56 (11738089_at) / RFU CYB561 (11721691_x_at) / Fold change /veh CYB561 (11721691_x_at) / RFU ANKRD19P (11752326_a_at) / Fold change /veh ANKRD19P (11752326_a_at) / RFU OR2T12 /// OR2T33 /// OR2T8 (11738714_s_at) / Fold change /veh OR2T12 /// OR2T33 /// OR2T8 (11738714_s_at) / RFU VCAN (11748164_a_at) / Fold change /veh VCAN (11748164_a_at) / RFU JSRP1 (11732532_at) / Fold change /veh JSRP1 (11732532_at) / RFU KRTAP10-11 (11738290_x_at) / Fold change /veh KRTAP10-11 (11738290_x_at) / RFU MYO3A (11730013_a_at) / Fold change /veh MYO3A (11730013_a_at) / RFU EBF3 (11725865_a_at) / Fold change /veh EBF3 (11725865_a_at) / RFU CAMK2N1 (11719241_x_at) / Fold change /veh CAMK2N1 (11719241_x_at) / RFU C5orf56 (11738088_a_at) / Fold change /veh C5orf56 (11738088_a_at) / RFU OLFML3 (11715873_a_at) / Fold change /veh OLFML3 (11715873_a_at) / RFU LOC100653217 /// NTM (11731650_a_at) / Fold change /veh LOC100653217 /// NTM (11731650_a_at) / RFU MAPK11 (11762145_a_at) / Fold change /veh MAPK11 (11762145_a_at) / RFU FIZ1 (11724087_x_at) / Fold change /veh FIZ1 (11724087_x_at) / RFU OASL (11726364_x_at) / Fold change /veh OASL (11726364_x_at) / RFU SOX15 (11748057_x_at) / Fold change /veh SOX15 (11748057_x_at) / RFU CD79A (11719716_a_at) / Fold change /veh CD79A (11719716_a_at) / RFU HIST1H1D (11736915_at) / Fold change /veh HIST1H1D (11736915_at) / RFU CASKIN2 (11723855_a_at) / Fold change /veh CASKIN2 (11723855_a_at) / RFU LOC730098 (11760151_x_at) / Fold change /veh LOC730098 (11760151_x_at) / RFU OR4N2 (11742367_at) / Fold change /veh OR4N2 (11742367_at) / RFU PRRT2 (11749266_a_at) / Fold change /veh PRRT2 (11749266_a_at) / RFU SNX32 (11753110_a_at) / Fold change /veh SNX32 (11753110_a_at) / RFU CDHR5 (11726645_a_at) / Fold change /veh CDHR5 (11726645_a_at) / RFU RCAN1 (11760418_a_at) / Fold change /veh RCAN1 (11760418_a_at) / RFU FAM167A (11723789_a_at) / Fold change /veh FAM167A (11723789_a_at) / RFU FAM26E (11764081_at) / Fold change /veh FAM26E (11764081_at) / RFU ISYNA1 (11749810_s_at) / Fold change /veh ISYNA1 (11749810_s_at) / RFU ACY1 (11761880_at) / Fold change /veh ACY1 (11761880_at) / RFU 11764098_at / Fold change /veh 11764098_at / RFU SAMD14 (11745864_x_at) / Fold change /veh SAMD14 (11745864_x_at) / RFU NPB (11741838_a_at) / Fold change /veh NPB (11741838_a_at) / RFU TMPRSS6 (11731388_a_at) / Fold change /veh TMPRSS6 (11731388_a_at) / RFU KRTAP10-2 (11738614_at) / Fold change /veh KRTAP10-2 (11738614_at) / RFU ARHGAP8 /// PRR5-ARHGAP8 (11727945_x_at) / Fold change /veh ARHGAP8 /// PRR5-ARHGAP8 (11727945_x_at) / RFU KRTAP5-7 /// NADSYN1 (11734609_at) / Fold change /veh KRTAP5-7 /// NADSYN1 (11734609_at) / RFU RASL12 (11751679_a_at) / Fold change /veh RASL12 (11751679_a_at) / RFU CDKN2B (11736163_a_at) / Fold change /veh CDKN2B (11736163_a_at) / RFU PRF1 (11729649_at) / Fold change /veh PRF1 (11729649_at) / RFU, ZNF638 /// ZNF638-IT1 / Fold change vs veh, ZNF638 /// ZNF638-IT1 / RFU, PANK3 / Fold change vs veh, PANK3 / RFU, SH3YL1 / Fold change vs veh, SH3YL1 / RFU, ZEB2 / Fold change vs veh, ZEB2 / RFU, NRIP1 / Fold change vs veh, NRIP1 / RFU, PTTG1IP / Fold change vs veh, PTTG1IP / RFU, CAPN2 / Fold change vs veh, CAPN2 / RFU, MED14 / Fold change vs veh, MED14 / RFU, SNORA58 / Fold change vs veh, SNORA58 / RFU, C1orf63 / Fold change vs veh, C1orf63 / RFU, LRRFIP1 / Fold change vs veh, LRRFIP1 / RFU, NDUFAF7 / Fold change vs veh, NDUFAF7 / RFU, SLC12A2 / Fold change vs veh, SLC12A2 / RFU, IBTK / Fold change vs veh, IBTK / RFU, ESF1 / Fold change vs veh, ESF1 / Fold change vs veh, TMEM50B / RFU, TAOK1 / Fold change vs veh, TAOK1 / RFU, ACBD3 / Fold change vs veh, ACBD3 / RFU, TMA16 / Fold change vs veh, TMA16 / RFU, RWDD3 / Fold change vs veh, RWDD3 / RFU, BCAT1 / Fold change vs veh, BCAT1 / RFU, EDEM3 / Fold change vs veh, EDEM3 / RFU, TMEM33 / Fold change vs veh, TMEM33 / RFU, WDR75 / Fold change vs veh, WDR75 / RFU, AHCTF1 / Fold change vs veh, AHCTF1 / RFU, TFRC / Fold change vs veh, TFRC / RFU, ZDHHC17 / Fold change vs veh, ZDHHC17 / RFU, NOM1 / Fold change vs veh, NOM1 / RFU, ARL8B / Fold change vs veh, ARL8B / RFU, ZBTB11 / Fold change vs veh, ZBTB11 / RFU, TAMM41 / Fold change vs veh, TAMM41 / RFU, KIAA1704 /// LOC100996395 / Fold change vs veh, KIAA1704 /// LOC100996395 / RFU, ING1 / Fold change vs veh, ING1 / RFU, TRMT61B / Fold change vs veh, TRMT61B / RFU, FUBP3 / Fold change vs veh, FUBP3 / RFU, TP53 / Fold change vs veh, TP53 / RFU, TNKS2 / Fold change vs veh, TNKS2 / RFU, ZFP14 / Fold change vs veh, ZFP14 / RFU, ACTR2 / Fold change vs veh, ACTR2 / RFU, PPP3R1 / Fold change vs veh, PPP3R1 / RFU, PIK3R1 / Fold change vs veh, PIK3R1 / RFU, HNRNPA1 / Fold change vs veh, HNRNPA1 / RFU, RNF170 / Fold change vs veh, RNF170 / RFU, ZNF28 / Fold change vs veh, ZNF28 / RFU, RNGTT / Fold change vs veh, RNGTT / RFU, OGT / Fold change vs veh, OGT / RFU, BRD1 / Fold change vs veh, BRD1 / RFU, MARS / Fold change vs veh, MARS / RFU, ZNF655 / Fold change vs veh, ZNF655 / RFU, FAHD1 / Fold change vs veh, FAHD1 / RFU, BDP1 / Fold change vs veh, BDP1 / RFU, LRRCC1 / Fold change vs veh, LRRCC1 / RFU, ARID1A / Fold change vs veh, ARID1A / RFU, ZNF146 / Fold change vs veh, ZNF146 / RFU, ZNF330 / Fold change vs veh, ZNF330 / RFU, GPN3 / Fold change vs veh, GPN3 / RFU, C9orf123 / Fold change vs veh, C9orf123 / RFU, N4BP2L2 / Fold change vs veh, N4BP2L2 / RFU, ARFIP1 / Fold change vs veh, ARFIP1 / RFU, FAM179B / Fold change vs veh, FAM179B / RFU, BCL10 / Fold change vs veh, BCL10 / RFU, UHRF1BP1L / Fold change vs veh, UHRF1BP1L / RFU, BET1 / Fold change vs veh, BET1 / RFU, CNOT2 / Fold change vs veh, CNOT2 / RFU, ZNF268 / Fold change vs veh, ZNF268 / Fold change vs veh, ZNF507 / RFU, DGCR2 / Fold change vs veh, DGCR2 / RFU, WDSUB1 / Fold change vs veh, WDSUB1 / Fold change vs veh, HSP90B1 /// MIR3652 / RFU, ADSS / Fold change vs veh, ADSS / RFU, GK / Fold change vs veh, GK / RFU, ZNF148 / Fold change vs veh, ZNF148 / RFU, TAF9 / Fold change vs veh, TAF9 / RFU, SLC1A5 / Fold change vs veh, SLC1A5 / RFU, SLMO2 / Fold change vs veh, SLMO2 / RFU, ABCC4 / Fold change vs veh, ABCC4 / RFU, LOC101060439 /// RAP1B / Fold change vs veh, LOC101060439 /// RAP1B / RFU, RFX7 / Fold change vs veh, RFX7 / RFU, GTPBP10 / Fold change vs veh, GTPBP10 / RFU, CNEP1R1 / Fold change vs veh, CNEP1R1 / RFU, BIVM-ERCC5 /// ERCC5 / Fold change vs veh, BIVM-ERCC5 /// ERCC5 / RFU, ILF3 / Fold change vs veh, ILF3 / RFU 11762660_at / Fold change /veh 11762660_at / RFU VCAN (11757783_s_at) / Fold change /veh VCAN (11757783_s_at) / RFU DDX43 (11728927_at) / Fold change /veh DDX43 (11728927_at) / RFU KRT8 (11758188_x_at) / Fold change /veh KRT8 (11758188_x_at) / RFU NKD1 (11759106_at) / Fold change /veh NKD1 (11759106_at) / RFU SRD5A1 (11742802_a_at) / Fold change /veh SRD5A1 (11742802_a_at) / RFU TPSAB1 /// TPSB2 (11721975_s_at) / Fold change /veh TPSAB1 /// TPSB2 (11721975_s_at) / RFU GSTM3 (11746129_a_at) / Fold change /veh GSTM3 (11746129_a_at) / RFU IL23R (11737362_x_at) / Fold change /veh IL23R (11737362_x_at) / RFU TMEM51 (11727254_a_at) / Fold change /veh TMEM51 (11727254_a_at) / RFU PIWIL2 (11732686_x_at) / Fold change /veh PIWIL2 (11732686_x_at) / RFU ORM1 (11744905_x_at) / Fold change /veh ORM1 (11744905_x_at) / RFU CCDC152 (11743942_at) / Fold change /veh CCDC152 (11743942_at) / RFU ECM1 (11717891_a_at) / Fold change /veh ECM1 (11717891_a_at) / RFU IL23R (11748794_a_at) / Fold change /veh IL23R (11748794_a_at) / RFU TNFAIP8L3 (11732012_x_at) / Fold change /veh TNFAIP8L3 (11732012_x_at) / RFU MBOAT4 (11741988_at) / Fold change /veh MBOAT4 (11741988_at) / RFU 11764193_at / Fold change /veh 11764193_at / RFU TMEM53 (11763286_at) / Fold change /veh TMEM53 (11763286_at) / RFU MAGEB2 (11727129_at) / Fold change /veh MAGEB2 (11727129_at) / RFU TMEM200A (11744735_a_at) / Fold change /veh TMEM200A (11744735_a_at) / RFU CCDC152 (11751479_a_at) / Fold change /veh CCDC152 (11751479_a_at) / RFU FAM211A (11726209_a_at) / Fold change /veh FAM211A (11726209_a_at) / RFU RGS16 (11746705_a_at) / Fold change /veh RGS16 (11746705_a_at) / RFU VCAN (11755009_s_at) / Fold change /veh VCAN (11755009_s_at) / RFU RHOB (11743442_s_at) / Fold change /veh RHOB (11743442_s_at) / RFU RGS16 (11720943_a_at) / Fold change /veh RGS16 (11720943_a_at) / RFU RGS16 (11720944_at) / Fold change /veh RGS16 (11720944_at) / RFU, VPS4B / Fold change vs veh, VPS4B / RFU, CREB1 / Fold change vs veh, CREB1 / RFU, DNAJC13 / Fold change vs veh, DNAJC13 / RFU, GNAQ / Fold change vs veh, GNAQ / RFU, CDK5R1 / Fold change vs veh, CDK5R1 / RFU, ZRANB3 / Fold change vs veh, ZRANB3 / RFU, CUL4A / Fold change vs veh, CUL4A / RFU, CCNY / Fold change vs veh, CCNY / RFU, UFL1 / Fold change vs veh, UFL1 / RFU, COG3 / Fold change vs veh, COG3 / RFU, DIAPH2 / Fold change vs veh, DIAPH2 / RFU, SKA2 / Fold change vs veh, SKA2 / RFU, AFF3 / Fold change vs veh, AFF3 / RFU, LMF1 / Fold change vs veh, LMF1 / RFU, IPO11 / Fold change vs veh, IPO11 / RFU, DFFB / Fold change vs veh, DFFB / RFU, FOXP1 / Fold change vs veh, FOXP1 / RFU, CARD8 / Fold change vs veh, CARD8 / RFU, STRN3 / Fold change vs veh, STRN3 / RFU, ADK / Fold change vs veh, ADK / RFU, RASSF2 / Fold change vs veh, RASSF2 / RFU, WIPF1 / Fold change vs veh, WIPF1 / RFU, LARP1B / Fold change vs veh, LARP1B / RFU, RASA1 / Fold change vs veh, RASA1 / RFU, RB1 / Fold change vs veh, RB1 / RFU, PPFIA1 / Fold change vs veh, PPFIA1 / RFU, MAT2A / Fold change vs veh, MAT2A / RFU, CCT5 / Fold change vs veh, CCT5 / RFU, WDR92 / Fold change vs veh, WDR92 / RFU, CUX1 / Fold change vs veh, CUX1 / RFU, TTC7A / Fold change vs veh, TTC7A / RFU, TMEM135 / Fold change vs veh, TMEM135 / RFU, DEPTOR / Fold change vs veh, DEPTOR / RFU, CPM / Fold change vs veh, CPM / RFU, DNAJB6 / Fold change vs veh, DNAJB6 / RFU, CACNA2D3 / Fold change vs veh, CACNA2D3 / RFU, DTX4 / Fold change vs veh, DTX4 / RFU, TFCP2 / Fold change vs veh, TFCP2 / RFU, GMCL1 /// GMCL1P1 / Fold change vs veh, GMCL1 /// GMCL1P1 / RFU, AEBP2 / Fold change vs veh, AEBP2 / RFU, SNHG1 /// SNORD22 /// SNORD25 /// SNORD26 /// SNORD27 /// SNORD28 /// SNORD29 /// SNORD31 / Fold change vs veh, SNHG1 /// SNORD22 /// SNORD25 /// SNORD26 /// SNORD27 /// SNORD28 /// SNORD29 /// SNORD31 / Fold change (Aza/veh), C12orf56 (ProbeSet 11735607_a_at) / Fold change (ACY-1035/veh), C12orf56 (ProbeSet 11735607_a_at) / Fold change (Aza/veh), FGFR1OP (ProbeSet 11751329_s_at) / Fold change (ACY-1035/veh), FGFR1OP (ProbeSet 11751329_s_at) / Fold change (Aza/veh), VPS36 (ProbeSet 11739960_a_at) / Fold change (ACY-1035/veh), VPS36 (ProbeSet 11739960_a_at) / RFU SYPL1 (11715823_x_at) / Fold change /veh SYPL1 (11715823_x_at) / RFU IGFBP7 (11715501_s_at) / Fold change /veh IGFBP7 (11715501_s_at) / RFU REEP3 (11722064_at) / Fold change /veh REEP3 (11722064_at) / RFU IGLL1 (11728026_x_at) / Fold change /veh IGLL1 (11728026_x_at): dose or concentration left out as unconfirmed
Conditions: ProbeSet 11731610_x_at; LIST B

## Nc1ccc(-c2cccs2)cc1NC(=O)c1ccc2c(c1)cc(C1CC1)n2CCN1CCOCC1 [ACY-1035]
  RFU, KIAA1704 /// LOC100996395: 79.91 RFU
